Experimental data taken from US9422240B2, “Partially saturated nitrogen-containing heterocyclic compound” (TAISHO PHARMACEUTICAL CO., LTD, priority 2012, dated 2016).
Where a name gives a salt, the structure may show the parent alone.

Legend:
human PHD2 [1] = target: T1, human PHD2 (Homo sapiens (Human), UniProt Q9GZT9); assay: Test 2: human PHD2 inhibitory activity, fluorescence polarization assay of HIF-1α peptide proline hydroxylation; assay type: biochemical; conditions: for inhibition at 1 µM: read-out: Percent inhibition (% at 1 μM)
Outline: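 Enzyme from lysate of cells expressing human PHD2 (NM_022051), 40 ng/well, added to compound and 19-residue HIF-1α peptide substrate; 20 min at 30° C., EDTA quench. Prolyl hydroxylation detected by HIF-OH antibody binding via fluorescence polarization; inhibition relative to compound-free wells.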

human PHD2 [2] = target: T1, human PHD2; assay: Test 1: human PHD2 inhibitory activity, [14C]-2-oxoglutarate to [14C]-succinic acid radiometric assay with HIF-1α peptide; assay type: biochemical; conditions: read-out: Percent inhibition (% at 1 μM)
Description: (1) Expression and Preparation of Human PHD2
Human PHD2 was expressed in insect cells (HighFive cells). A registered sequence of human PHD2 (NM_022051) was introduced into the pFastBacl vector (Invitrogen), and the sequence was verified. The vector was introduced into Sf9 insect cells (Invitrogen) to acquire human PHD2 baculovirus. HighFive insect cells (Invitrogen) were infected with this recombinant virus and cultured at 27° C. for 72 hours; thereafter, a cell lysis solution containing various protease inhibitors was added and the cells were disrupted to form a suspension. The suspension of disrupted cells was centrifuged at 4° C. and 100,000×g for 30 minutes and the supernatant was recovered as a cell lysate.
(2) Measurement of Human PHD2 Inhibitory Activity
The activity of human PHD2 enzyme was measured with a substrate which is a 19-residue partial peptide based on the sequence of HIF-1α. Specifically, the conversion of 2-oxoglutarate to succinic acid which would occur simultaneously with the hydroxylation of a proline residue in the peptide with the PHD2 enzyme was utilized. To be more specific, [^14C]-2-oxogiutarate was added to the reaction system to initiate an enzymatic reaction and the [^14C]-2-oxoglutarate remaining after the reaction was bound to 2,4-dinitrophenylhydrazine (DNPH), with the resulting precipitate being removed by passage through a filter. Subsequently, radiation counting was conducted on the resulting [^14C]-succinic acid.
A test compound, HIF-1αpeptide and [^14C]-2-oxoglutarate were preliminarily added onto 96-well plates and reaction was initiated by adding a human PHD2 enzyme solution (4 μg/well). After 15-min incubation at 37° C., a DNPH-containing quench solution was added and the mixture was allowed to stand at room temperature for 30 minutes. Thereafter, an excess of non-radiolabelled 2-oxoglutarate was added and the mixture was allowed to stand at room temperature for 60 minutes. The resulting precipitate was removed by passage through a filter and the radiation count on the [^14C]-succinic acid was quantified (with MicroBeta). Radiation counting was conducted for each well and the human PHD2 inhibitory activity of each test compound was calculated on the basis of the values for the substrate-free group and the test compound-free group.

[3] = test compound's concentration 1 μM, Test 2, fluorescence polarization assay
[4] = test compound's concentration 1 μM, Test 1, [14C]-2-oxoglutarate radiometric assay

T1 sequence (Q9GZT9 whole entry): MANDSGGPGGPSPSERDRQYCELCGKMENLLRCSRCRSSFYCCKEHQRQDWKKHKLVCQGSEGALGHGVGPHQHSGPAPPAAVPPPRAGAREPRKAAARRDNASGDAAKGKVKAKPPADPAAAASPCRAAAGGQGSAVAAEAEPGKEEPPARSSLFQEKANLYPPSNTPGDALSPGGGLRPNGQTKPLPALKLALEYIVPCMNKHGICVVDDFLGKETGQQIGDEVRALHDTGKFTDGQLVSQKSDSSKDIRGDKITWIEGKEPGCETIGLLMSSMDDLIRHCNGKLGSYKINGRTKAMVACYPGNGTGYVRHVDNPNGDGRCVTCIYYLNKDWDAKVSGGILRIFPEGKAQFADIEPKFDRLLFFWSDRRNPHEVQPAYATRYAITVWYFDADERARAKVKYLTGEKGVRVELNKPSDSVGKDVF

Row | inhibition at 1 µM (human PHD2 [1]; [3]) | inhibition at 1 µM (human PHD2 [2]; [4]) | Compound | also measured
1 | 94% | 78% | O=C(O)CNC(=O)C1=C(O)CC2(CCOCC2)N(Cc2ccc(-c3ccc(C(F)(F)F)cc3)cc2)C1=O [Ex. 1-1, N-[(4-Hydroxy-2-oxo-1-{[4′-(trifluoromethyl)biphenyl-4-yl]methyl}-9-oxa-1-azaspiro[5.5]undec-3-en-3-yl)carbonyl]glycine] | 
2 | 92% | 94% | O=C(O)CNC(=O)C1=C(O)CC2(COC2)N(Cc2ccc(-c3ccccc3)cc2)C1=O [Ex. 1-2, N-{[5-(Biphenyl-4-ylmethyl)-8-hydroxy-6-oxo-2-oxa-5-azaspiro[3.5]non-7-en-7-yl]carbonyl}glycine] | 
3 |  |  | CC1CN(Cc2ccc(OC(F)(F)F)cc2)C(=O)C(C(=O)NCC(=O)O)=C1O (stereo not drawn) [Ex. 1-3, N-({4-Hydroxy-5-methyl-2-oxo-1-[4-(trifluoromethoxy)benzyl]-1,2,5,6-tetrahydropyridin-3-yl}carbonyl)glycine sodium salt] | inhibition at 1 µM (human PHD2 [1]): 78%; inhibition at 1 µM (human PHD2 [2]): 74%
4 | 57% | 50% | O=C(O)CNC(=O)C1=C(O)C2(CCCCC2)CN(Cc2ccccc2)C1=O [Ex. 1-6] | 
5 | 68% | 54% | O=C(O)CNC(=O)C1=C(O)C2(CCCCC2)CN(Cc2ccc3ccccc3c2)C1=O [Ex. 1-7] | 
6 | 87% | 54% | O=C(O)CNC(=O)C1=C(O)C2(CCCCC2)CN(Cc2ccc(-c3ccccc3)cc2)C1=O [Ex. 1-8] | 
7 | 93% | 88% | O=C(O)CNC(=O)C1=C(O)CC2(CCCC2)N(Cc2ccc(-c3ccccc3)cc2)C1=O [Ex. 1-9] | 
8 | 92% | 93% | O=C(O)CNC(=O)C1=C(O)CC2(CCOCC2)N(Cc2ccc(-c3ccccc3)cc2)C1=O [Ex. 1-10] | 
9 | 93% | 95% | O=C(O)CNC(=O)C1=C(O)C2(CCOCC2)CN(Cc2ccc(-c3ccccc3)cc2)C1=O [Ex. 1-11] | 
10 | 81% | 64% | O=C(O)CNC(=O)C1=C(O)C2(CCCC2)CN(Cc2ccc(-c3ccccc3)cc2)C1=O [Ex. 1-13] | 
11 | 36% | 21% | O=C(O)CNC(=O)C1=C(O)C2(CCCCCC2)CN(Cc2ccc(-c3ccccc3)cc2)C1=O [Ex. 1-14] | 
12 | 86% | 72% | O=C(O)CNC(=O)C1=C(O)C2(CCC2)CN(Cc2ccc(-c3ccccc3)cc2)C1=O [Ex. 1-15] | 
13 | 85% | 84% | CC1(C)CC(O)=C(C(=O)NCC(=O)O)C(=O)N1Cc1ccc(-c2ccccc2)cc1 [Ex. 1-17] | 
14 | 73% | 72% | O=C(O)CNC(=O)C1=C(O)CCN(Cc2ccccc2)C1=O [Ex. 1-21] | 
15 | 82% | 84% | O=C(O)CNC(=O)C1=C(O)CCN(Cc2ccc(Br)cc2)C1=O [Ex. 1-23] | 
16 | 84% | 74% | O=C(O)CNC(=O)C1=C(O)CCN(Cc2cccc(-c3ccccc3)c2)C1=O [Ex. 1-24] | 
17 | 76% | 72% | O=C(O)CNC(=O)C1=C(O)CCN(Cc2ccccc2-c2ccccc2)C1=O [Ex. 1-25] | 
18 |  | 90% | O=C(O)CNC(=O)C1=C(O)CCN(CC2CCC(c3ccccc3)CC2)C1=O (stereo not drawn) [Ex. 1-26] | 
19 | 89% | 75% | CC1(C)CN(Cc2ccc(-c3ccccc3)cc2)C(=O)C(C(=O)NCC(=O)O)=C1O [Ex. 1-27] | 
20 | 92% | 94% | O=C(O)CNC(=O)C1=C(O)CCN(Cc2ccc(Oc3ccccc3)cc2)C1=O [Ex. 1-28] | IC50 (human PHD2 [1]; human PHD2, fluorescence polarization assay, 20-min incubation at 30° C.): 88 nM

Row | inhibition at 1 µM (human PHD2 [1]; [3]) | inhibition at 1 µM (human PHD2 [2]; [4]) | Compound | also measured
21 | 86% | 81% | O=C(O)CNC(=O)C1=C(O)CCN(Cc2ccc3ccccc3c2)C1=O [Ex. 1-29] | 
22 | 83% | 77% | O=C(O)CNC(=O)C1=C(O)CCN(CCCCCc2ccccc2)C1=O [Ex. 1-30] | 
23 | 89% | 89% | O=C(O)CNC(=O)C1=C(O)CCN(CCc2ccc(-c3ccccc3)cc2)C1=O [Ex. 1-31] | 
24 | 82% | 78% | O=C(O)CNC(=O)C1=C(O)CCN(Cc2ccc3cccnc3c2)C1=O [Ex. 1-32] | 
25 | 84% | 72% | O=C(O)CNC(=O)C1=C(O)CCN(Cc2cccc3ccccc23)C1=O [Ex. 1-33] | 
26 | 75% | 58% | O=C(O)CNC(=O)C1=C(O)CCN(CCc2ccccc2)C1=O [Ex. 1-34] | 
27 | 90% | 81% | O=C(O)CNC(=O)C1=C(O)CCN(Cc2ccc(-c3ccccn3)cc2)C1=O [Ex. 1-35] | 
28 | 85% | 83% | CC(C)(C)c1ccc(-c2ccc(CN3CCC(O)=C(C(=O)NCC(=O)O)C3=O)cc2)cc1 [Ex. 1-36] | 
29 | 89% | 87% | O=C(O)CNC(=O)C1=C(O)CCN(Cc2ccc(C3CCCCC3)cc2)C1=O [Ex. 1-37] | 
30 | 65% |  | O=C(O)CNC(=O)C1=C(O)CC2(CCN(C(=O)c3ccccc3)CC2)N(Cc2ccccc2)C1=O [Ex. 7-3, N-[(9-Benzoyl-1-benzyl-4-hydroxy-2-oxo-1,9-diazaspiro[5.5]undec-3-en-3-yl)carbonyl]glycine] | 
31 | 16% |  | COc1ccc(CN2CCC(O)=C(C(=O)NCC(=O)NO)C2=O)cc1 [Ex. 8-1, 4-Hydroxy-N-[2-(hydroxyamino)-2-oxoethyl]-1-(4-methoxybenzyl)-2-oxo-1,2,5,6-tetrahydro-3-pyridinecarboxamide] | 
32 | 29% |  | COc1ccc(CN2CCC(O)=C(C(=O)NCCC(=O)O)C2=O)cc1 [Ex. 9-1, N-{[4-Hydroxy-1-(4-methoxybenzyl)-2-oxo-1,2,5,6-tetrahydro-3-pyridinyl]carbonyl}-β-alanine] | 
33 | 23% |  | COc1ccc(CN2CCC(O)=C(C(=O)NCCCC(=O)O)C2=O)cc1 [Ex. 9-2] | 
34 | 1% |  | COc1ccc(CN2CCC(O)=C(C(=O)N[C@H](C)C(=O)O)C2=O)cc1 [Ex. 9-3] | 
35 | 42% |  | COc1ccc(CN2CCC(O)=C(C(=O)N[C@@H](C)C(=O)O)C2=O)cc1 [Ex. 9-4] | 
36 | 3% |  | COc1ccc(CN2CCC(O)=C(C(=O)N(C)CC(=O)O)C2=O)cc1 [Ex. 9-5, N-{[4-Hydroxy-1-(4-methoxybenzyl)-2-oxo-1,2,5,6-tetrahydro-3-pyridinyl]carbonyl}-N-methylglycine] | 
37 |  |  | CC1(C)CC(O)=C(C(=O)NCC(=O)O)C(=O)N1CC(=O)NCc1ccc(-c2ccccc2)cc1 [Ex. 10-1, N-[(1-{2-[(4-Biphenylylmethyl)amino]-2-oxoethyl}-4-hydroxy-6,6-dimethyl-2-oxo-1,2,5,6-tetrahydro-3-pyridinyl)carbonyl]glycine sodium salt] | inhibition at 1 µM (human PHD2 [1]): 34%
38 | 6% |  | CC1(C)CC(O)=C(C(=O)NCC(=O)O)C(=O)N1CC(=O)NCc1ccc(C(F)(F)F)cc1 [Ex. 10-2] | 
39 | 10% |  | CN(Cc1ccc(F)cc1)C(=O)CN1C(=O)C(C(=O)NCC(=O)O)=C(O)CC1(C)C [Ex. 10-4] | 
40 | 96% |  | O=C(O)CNC(=O)C1=C(O)CCN(C(CO)c2ccc(-c3ccc(F)cc3)cc2)C1=O (stereo not drawn) [Ex. 11-1, N-({1-[1-(4′-Fuoro-4-biphenylyl)-2-hydroxyethyl]-4-hydroxy-2-oxo-1,2,5,6-tetrahydro-3-pyridinyl}carbonyl)glycine] | 
